Tests used:
[1] = target: human recombinant dopamine D2L receptor (Homo sapiens, UniProt P14416); experiment: Dopamine D2L radioligand binding ([3H]Spiperone)
Experimental: To evaluate in radioligand binding assays the activity of compounds of the invention, human recombinant dopamine D2L receptor expressed in Chinese hamster ovary (CHO) cells [Grandy, D. K. et al., Proc. Natl. Acad. Sci. USA. (1989), 86:9762; Hayes, G. et al., Mol. Endocrinol. […] Compounds of the invention were incubated with 0.16 nM [^3H]Spiperone for 120 min at 25° C. Non-specific binding was estimated in the presence of 10 μM Haloperidol. Receptor proteins were filtered and washed, the filters were then counted to determine [^3H]Spiperone specifically bound. Compounds were screened at 1 μM or lower, using 1% DMSO as vehicle. Biochemical assay results are presented as the percent inhibition of specific binding in Table 3.

[2] = target: T1, human recombinant serotonin (5-Hydroxytryptamine) 5-HT2C receptor (Homo sapiens, UniProt P28335); experiment: Serotonin 5-HT2C radioligand binding ([3H]Mesulergine)
T1 construct: expressed in transfected cells; host or cells: Chinese hamster ovary (CHO-K1) cells
T1 sequence (P28335 33-458): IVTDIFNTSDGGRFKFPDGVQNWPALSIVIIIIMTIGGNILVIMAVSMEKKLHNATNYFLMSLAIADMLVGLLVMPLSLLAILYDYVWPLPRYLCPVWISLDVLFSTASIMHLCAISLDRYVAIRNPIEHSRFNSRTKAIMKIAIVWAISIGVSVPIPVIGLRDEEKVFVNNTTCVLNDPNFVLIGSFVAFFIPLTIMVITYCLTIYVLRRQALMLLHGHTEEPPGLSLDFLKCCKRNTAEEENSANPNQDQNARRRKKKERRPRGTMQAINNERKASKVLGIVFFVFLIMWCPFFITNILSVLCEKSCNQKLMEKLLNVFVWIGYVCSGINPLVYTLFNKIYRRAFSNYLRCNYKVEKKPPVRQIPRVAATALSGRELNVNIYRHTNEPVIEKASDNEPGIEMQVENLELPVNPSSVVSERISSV
Experimental: (1997), 69:1449] in a modified Tris-HCl buffer (50 mM Tris-HCl, pH 7.4, 0.1% Ascorbic Acid, 10 μM Pargyline) was used. Compounds of the invention were incubated with 1 nM [^3H]Mesulergine for 60 min at 25° C. Non-specific binding was estimated in the presence of 1 μM Mianserin. Receptor proteins were filtered and washed, the filters were then counted to determine [^3H]Mesulergine specifically bound. Compounds were screened at 1 μM or lower, using 1% DMSO as vehicle. Biochemical assay results are presented as the percent inhibition of specific binding in Table 4.

[3] = target: T2, human recombinant serotonin (5-Hydroxytryptamine) 5-HT6 receptor (Homo sapiens, UniProt P50406); experiment: Serotonin 5-HT6 radioligand binding ([3H]LSD)
T2 construct: expressed in transfected cells; host or cells: human HeLa cells
T2 sequence (P50406 whole entry): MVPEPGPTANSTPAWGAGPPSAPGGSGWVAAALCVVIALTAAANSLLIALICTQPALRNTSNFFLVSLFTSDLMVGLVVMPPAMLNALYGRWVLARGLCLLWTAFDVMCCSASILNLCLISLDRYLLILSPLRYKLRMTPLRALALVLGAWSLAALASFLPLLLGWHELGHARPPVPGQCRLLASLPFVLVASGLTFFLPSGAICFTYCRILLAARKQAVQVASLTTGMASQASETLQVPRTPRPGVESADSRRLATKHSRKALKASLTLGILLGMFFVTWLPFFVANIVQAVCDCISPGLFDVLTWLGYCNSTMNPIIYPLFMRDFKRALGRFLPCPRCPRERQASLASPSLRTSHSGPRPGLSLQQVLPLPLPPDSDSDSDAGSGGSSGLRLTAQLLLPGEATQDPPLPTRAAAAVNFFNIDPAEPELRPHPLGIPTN
Experimental: (§1) Compounds of the invention were incubated with 1.5 nM [3H]Lysergic acid diethylamide (LSD) for 120 min at 37° C. […] Receptor proteins were filtered and washed, the filters were then counted to determine [3H]LSD specifically bound. Compounds were screened at 1 μM or lower, using 1% DMSO as vehicle. Biochemical assay results are presented as the percent inhibition of specific binding in Table 4.

[4] = target: T3, human recombinant serotonin (5-Hydroxytryptamine) 5-HT5A receptor (Homo sapiens, UniProt P47898); experiment: Serotonin 5-HT5A radioligand binding ([3H]LSD); conditions: 0.1 μM ligand concentration
T3 construct: expressed in transfected cells; host or cells: Chinese hamster ovary (CHO-K1) cells
T3 sequence (P47898 whole entry): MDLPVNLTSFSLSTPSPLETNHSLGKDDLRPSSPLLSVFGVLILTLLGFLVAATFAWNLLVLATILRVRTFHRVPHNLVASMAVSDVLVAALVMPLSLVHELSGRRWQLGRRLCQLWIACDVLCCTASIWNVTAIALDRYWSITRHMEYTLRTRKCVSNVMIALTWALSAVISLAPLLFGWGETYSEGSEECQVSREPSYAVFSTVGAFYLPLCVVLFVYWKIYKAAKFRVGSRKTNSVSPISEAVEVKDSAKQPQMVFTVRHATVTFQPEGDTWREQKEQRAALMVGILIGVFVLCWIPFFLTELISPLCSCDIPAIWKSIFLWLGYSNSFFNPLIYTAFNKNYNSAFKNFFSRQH
Experimental: as §1, with “1.7” for “1.5”, “[^3H]Lysergic” for “[3H]Lysergic”, “60” for “120”, “[^3H]LSD” for “[3H]LSD”

[5] = target: human recombinant serotonin (5-Hydroxytryptamine) 5-HT7 receptor (Homo sapiens, UniProt P34969); experiment: Serotonin 5-HT7 radioligand binding ([3H]LSD); conditions: 0.1 μM ligand concentration
Sequence of human recombinant serotonin (5-Hydroxytryptamine) 5-HT7 receptor (P34969 whole entry): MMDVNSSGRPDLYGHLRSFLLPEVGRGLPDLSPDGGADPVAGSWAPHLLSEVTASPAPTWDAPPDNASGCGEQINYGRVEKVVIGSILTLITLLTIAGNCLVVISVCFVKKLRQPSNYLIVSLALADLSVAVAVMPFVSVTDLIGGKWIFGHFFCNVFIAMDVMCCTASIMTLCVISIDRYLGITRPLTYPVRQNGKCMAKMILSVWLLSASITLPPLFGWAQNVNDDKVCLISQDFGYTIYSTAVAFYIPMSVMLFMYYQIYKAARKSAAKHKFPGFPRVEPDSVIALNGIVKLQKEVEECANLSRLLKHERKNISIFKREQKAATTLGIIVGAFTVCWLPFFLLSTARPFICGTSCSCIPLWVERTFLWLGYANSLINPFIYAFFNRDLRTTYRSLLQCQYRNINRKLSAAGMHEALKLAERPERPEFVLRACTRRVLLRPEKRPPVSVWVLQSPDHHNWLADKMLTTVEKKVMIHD
Experimental: as §1, with “of” for “of the”, “5.5” for “1.5”, “[^3H]Lysergic” for “[3H]Lysergic”, “2 h” for “120 min”, “25°” for “37°”, “[^3H]LSD” for “[3H]LSD”

[6] = target: T4, rat adrenergic α1A receptor (Rattus norvegicus, UniProt P43140); experiment: Adrenergic α1A radioligand binding ([3H]Prozosin); set-up: species or system Wistar Rat; conditions: 0.1 μM ligand conc.
T4 construct: rat adrenergic α1A receptor obtained from Wistar Rat submaxillary glands; from tissue; host or cells: Wistar Rat submaxillary glands
T4 sequence (P43140 1-466): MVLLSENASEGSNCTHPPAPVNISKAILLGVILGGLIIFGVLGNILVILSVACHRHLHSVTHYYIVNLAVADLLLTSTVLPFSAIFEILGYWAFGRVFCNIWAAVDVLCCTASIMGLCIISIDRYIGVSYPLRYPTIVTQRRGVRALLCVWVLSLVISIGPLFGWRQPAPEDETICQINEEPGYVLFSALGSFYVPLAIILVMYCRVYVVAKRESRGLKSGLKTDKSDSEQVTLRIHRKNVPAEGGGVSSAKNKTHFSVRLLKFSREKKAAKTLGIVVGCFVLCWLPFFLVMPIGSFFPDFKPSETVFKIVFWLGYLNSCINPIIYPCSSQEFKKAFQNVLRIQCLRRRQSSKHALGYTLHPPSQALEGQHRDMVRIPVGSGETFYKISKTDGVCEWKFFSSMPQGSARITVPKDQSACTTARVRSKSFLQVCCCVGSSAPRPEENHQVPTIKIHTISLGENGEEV
Experimental: To evaluate in radioligand binding assays the activity of compounds of the invention, rat adrenergic α1A receptor obtained from Wistar Rat submaxillary glands [Michel, A. D. et al., Br. J. Pharmacol. (1989), 98:883] in a modified Tris-HCl buffer (50 mM Tris-HCl buffer, pH 7.4, 0.5 mM EDTA) was used. Compounds of the invention were incubated with 0.25 nM [^3H]Prozosin for 60 min at 25° C. Non-specific binding was estimated in the presence of 10 μM phentolamine. Receptor proteins were filtered and washed, the filters were then counted to determine [^3H]Prozosin specifically bound. Compounds of the invention were screened at 1 μM or lower, using 1% DMSO as vehicle. Compounds of the invention were tested in this biochemical assay. Biochemical assay results for representative compounds were presented as the percent inhibition of specific binding in Table 3.

Sequence of human recombinant dopamine D2L receptor (P14416 whole entry): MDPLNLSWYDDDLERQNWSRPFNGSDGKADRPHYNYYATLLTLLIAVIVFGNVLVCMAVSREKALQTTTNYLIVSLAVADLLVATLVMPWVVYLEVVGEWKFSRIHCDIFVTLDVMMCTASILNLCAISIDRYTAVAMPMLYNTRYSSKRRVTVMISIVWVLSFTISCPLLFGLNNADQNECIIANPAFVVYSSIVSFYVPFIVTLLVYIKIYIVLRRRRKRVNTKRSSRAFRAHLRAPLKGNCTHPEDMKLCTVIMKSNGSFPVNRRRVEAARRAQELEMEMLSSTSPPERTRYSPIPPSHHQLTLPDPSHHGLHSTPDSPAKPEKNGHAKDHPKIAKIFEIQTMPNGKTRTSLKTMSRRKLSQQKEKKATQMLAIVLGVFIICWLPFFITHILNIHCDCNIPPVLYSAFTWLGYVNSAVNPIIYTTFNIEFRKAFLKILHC

SMILES | Percent Inhibition of ligand binding Dopamine D2L ([1]; 1 μM ligand conc.) | Percent Inhibition of ligand binding Serotonin 5-HT2C ([2]; 1 μM ligand concentration) | Percent Inhibition of ligand binding Serotonin 5-HT6 ([3]; 1 μM ligand concentration) | Percent Inhibition of ligand binding Dopamine D2L ([1]; 0.1 μM ligand conc.) | Percent Inhibition of ligand binding Serotonin 5-HT2C ([2]; 0.1 μM ligand concentration) | Percent Inhibition of ligand binding Serotonin 5-HT5A [4] | Percent Inhibition of ligand binding Serotonin 5-HT6 ([3]; 0.1 μM ligand concentration) | Percent Inhibition of ligand binding Serotonin 5-HT7 [5] | Percent Inhibition of ligand binding Adrenergic α1A [6]
Fc1ccc(CCn2c3c(c4cc(Cl)ccc42)C2CCCN2CC3)cc1 (stereo not drawn) [Compound 1, 7-(4-fluorophenethyl)-10-chloro-2,3,5,6,7,11c-hexahydro-1H-indolizino[7,8-b]indole] | 9% | 44% | 19% | – | – | – | – | – | –
Fc1ccc(CCn2c3c(c4cc(Cl)ccc42)CN2CCCC2C3)cc1 (stereo not drawn) [Compound 2, 10-(4-fluorophenethyl)-7-chloro-2,3,5,10,11,11a-hexahydro-1H-indolizino[7,6-b]indole] | 13% | 53% | 19% | – | – | – | – | – | –
C/C(=C\n1c2c(c3cc(C)ccc31)C1CCCN1CC2)c1ccc(C)nc1 (stereo not drawn) [Compound 32, (E)-10-methyl-7-(2-(6-methylpyridin-3-yl)prop-1-enyl)-2,3,5,6,7,11c-hexahydro-1H-indolizino[7,8-b]indole] | – | – | – | 3% | 26% | 24% | 25% | 61% | 55%
Cc1cnc2c(c1)c1c(n2CCc2ccc(C)nc2)CCN2CCCC12 (stereo not drawn) [Compound 33, 10-methyl-7-(2-(6-methylpyridin-3-yl)ethyl)-2,3,5,6,7,1c-hexahydro-1H-pyrido[3′,2′:4,5]pyrrolo[2,3-g]indolizine] | – | – | – | 1% | 13% | 0% | 20% | 44% | 26%
Cc1ccc(CCn2c3c(c4cccnc42)C2CCCN2CC3)cn1 (stereo not drawn) [Compound 34, 7-(2-(6-methylpyridin-3-yl)ethyl)-2,3,5,6,7,1c-hexahydro-1H-pyrido[3′,2′:4,5]pyrrolo[2,3-g]indolizine] | – | – | – | 6% | 7% | 6% | 5% | 18% | −9%
Cc1ccc(CCn2c3c(c4cccnc42)CN2CCCC2C3)cn1 (stereo not drawn) [Compound 35, 11-(2-(6-methylpyridin-3-yl)ethyl)-7,8,9,9a,10,11-hexahydro-5H-pyrido[3′,2′:4,5]pyrrolo[3,2-f]indolizine] | – | – | – | −3% | 15% | 10% | −3% | 6% | −2%
Cc1cnc2c(c1)c1c(n2CCc2ccc(C)nc2)CC2CCCN2C1 (stereo not drawn) [Compound 36, 3-methyl-11-(2-(6-methylpyridin-3-yl)ethyl)-7,8,9,9a,10,11-hexahydro-5H-pyrido[3′,2′:4,5]pyrrolo[3,2-f]indolizine] | – | – | – | −3% | 19% | 25% | 34% | 23% | 26%
O=C(Cn1c2c(c3cccnc31)CN1CCCC1C2)N1CCCCC1 (stereo not drawn) [Compound 37, 1-(piperidin-1-yl)-2-(8,9,9a,10-tetrahydro-5H-pyrido[3′,2′:4,5]pyrrolo[3,2-f]indolizin-11(7H)-yl)ethanone] | – | – | – | −5% | 9% | 8% | −9% | 3% | −6%
O=C(Cn1c2c(c3cccnc31)C1CCCN1CC2)N1CCCCC1 (stereo not drawn) [Compound 38, 1-(piperidin-1-yl)-2-(2,3,5,6-tetrahydro-1H-pyrido[3′,2′:4,5]pyrrolo[2,3-g]indolizin-7(11cH)-yl)ethanone] | – | – | – | 24% | 16% | 8% | −8% | 23% | −6%

From patent US9045482B2, “Pyrido[4,3-B]indoles and methods of use” (Medivation Technologies, Inc., priority 2009, dated 2015)
